Reference: patent US12649733B2, “3,6-diamino-pyridazin-3-yl derivatives, pharmaceutical compositions containing them and their uses as pro-apoptotic agents” (LES LABORATOIRES SERVIER, priority 2019, dated 2026)

What was measured:
BCLXL [1] = biological target: T1, BCLXL (Homo sapiens, UniProt Q07817, V10N/V9A); assay: AlphaLISA assay (BIM peptide displacement); format: binding; settings: 20 pM protein, 1 nM peptide
How it was run: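 Competitive displacement of fluorescein-labelled BIM peptide (1 nM) from biotinylated GST-BCL-XL(2-209) (20 pM) in 10 mM HEPES, 150 mM NaCl, 0.05% Tween 20, pH 7.4, 4% DMSO; 11-point dilutions. Overnight at 23° C with acceptor beads, then donor beads 2 h; Alpha signal at 615 nm.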

Bcl-xL protein = biological target: T2, Bcl-xL protein (Homo sapiens, UniProt Q07817, N197C); assay: Fluorescence quenching assay (PUMA peptide displacement); format: binding; settings: 1 nM protein, 400 nM peptide, 2 hours at 23° C.; KI determined from IC50
T2 construct: (2-197)[N197C]; His-His (two His8 stretches joined by a Gly/Ala/Ser/Thr linker)
How it was run: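 Displacement of a TQ5WS-quencher-labelled PUMA peptide (400 nM) from Cy5-labelled His-tagged Bcl-xL 2-197 N197C (1 nM) raises fluorescence. An 11-point compound dilution was incubated 2 h at 23 °C in HEPES 10 mM, NaCl 150 mM, 0.05% Tween 20, pH 7.4, 5% DMSO. Fluorescence was read at Ex 620/Em 680 nm, and KI was derived from IC50.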

MOLT-4 cells = assay: MOLT-4 cell viability, MTT assay; format: cell-based; settings: Homo sapiens, MOLT-4, 48 h, 48 h exposure
How it was run: (§1)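 Cells grown in RPMI 1640 with 10% heat-inactivated FBS at 37° C, 5% CO2, exposed 48 h to nine 3.16-fold serial compound dilutions in triplicate. MTT added for 4 h, SDS/HCl solubilisation overnight, absorbance at 540 nm; IC50 by four-parameter fit.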

H146 cells = assay: H146 cell viability, MTT assay; format: cell-based; settings: Homo sapiens, NCI-H146, 48 h, 48 h exposure
How it was run: as §1

BCLXL [2] = biological target: T1, BCLXL; assay: Fluorescence polarisation assay (PUMA-based probe displacement); format: binding; note: 20 nM protein, 10 nM fluorescent probe

T1 sequence (Q07817 with tags, fused parts or gaps V9A/V10N): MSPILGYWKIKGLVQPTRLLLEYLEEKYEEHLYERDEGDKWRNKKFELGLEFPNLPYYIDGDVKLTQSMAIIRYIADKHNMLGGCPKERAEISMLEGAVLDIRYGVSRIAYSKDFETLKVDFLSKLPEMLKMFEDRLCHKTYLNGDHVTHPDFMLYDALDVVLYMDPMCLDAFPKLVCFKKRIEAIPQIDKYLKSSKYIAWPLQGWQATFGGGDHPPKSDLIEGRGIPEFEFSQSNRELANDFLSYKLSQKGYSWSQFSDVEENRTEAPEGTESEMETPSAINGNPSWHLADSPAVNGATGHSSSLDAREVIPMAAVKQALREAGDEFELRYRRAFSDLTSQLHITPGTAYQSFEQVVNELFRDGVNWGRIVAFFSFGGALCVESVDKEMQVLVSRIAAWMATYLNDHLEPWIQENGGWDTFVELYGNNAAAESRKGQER
T2 sequence (Q07817 2-197 N197C): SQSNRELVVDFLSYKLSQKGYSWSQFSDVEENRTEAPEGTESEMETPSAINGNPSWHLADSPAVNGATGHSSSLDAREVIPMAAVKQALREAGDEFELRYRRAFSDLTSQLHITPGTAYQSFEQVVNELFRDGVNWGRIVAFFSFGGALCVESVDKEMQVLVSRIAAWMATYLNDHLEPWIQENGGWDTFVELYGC

Row | Compound | IC50 (BCLXL [1]) | Ki (Bcl-xL protein) | IC50 (MOLT-4 cells) | IC50 (H146 cells) | Ki (BCLXL [2])
1 | Cc1cc(N(CCCC(O)CNCCN2CCCCC2)c2nc(C(=O)O)c(CCCOc3ccc(C#CCN(C)C)cc3F)s2)nnc1Nc1nc2ccccc2s1 (centres unmarked) [Example 173, 2-[[6-(1,3-Benzothiazol-2-ylamino)-5-methyl-pyridazin-3-yl]-[4-hydroxy-5-[2-(1-piperidyl)ethylamino]pentyl]amino]-5-[3-[4-[3-(dimethylamino)prop-1-ynyl]-2-fluoro-phenoxy]propyl]thiazole-4-carboxylic acid] | 0.0079 nM | 0.0033 nM | 127 nM | 208 nM | –
2 | Cc1cc(N(CCCC(O)CN2CCNCC2)c2nc(C(=O)O)c(CCCOc3ccc(C#CCN(C)C)cc3F)s2)nnc1Nc1nc2ccccc2s1 (centres unmarked) [Example 172, 2-[[6-(1,3-Benzothiazol-2-ylamino)-5-methyl-pyridazin-3-yl]-(4-hydroxy-5-piperazin-1-yl-pentyl)amino]-5-[3-[4-[3-(dimethylamino)prop-1-ynyl]-2-fluoro-phenoxy]propyl]thiazole-4-carboxylic acid] | 0.0078 nM | 0.0026 nM | 160 nM | 40.2 nM | < 1 nM
3 | CNCC#Cc1ccc(OC/C(C)=C/c2sc(N(C)c3cc(C)c(Nc4nc5ccccc5s4)nn3)nc2C(=O)O)c(F)c1 [Example 174, 2-({6-[(1,3-Benzothiazol-2-yl)amino]-5-methylpyridazin-3-yl}(methyl)amino)-5-[(1E)-3-{2-fluoro-4-[3-(methylamino)prop-1-yn-1-yl]phenoxy}-2-methylprop-1-en-1-yl]-1,3-thiazole-4-carboxylic acid] | 0.6 nM | 0.043 nM | 1660 nM | 12600 nM | –
4 | Cc1cc(N(CCCCO)c2nc(C(=O)O)c(CCCOc3ccc(C#CCNCCCS(=O)(=O)O)cc3F)s2)nnc1Nc1nc2ccccc2s1 [Example 148, 2-[[6-(1,3-Benzothiazol-2-ylamino)-5-methyl-pyridazin-3-yl]-(4-hydroxybutyl)amino]-5-[3-[2-fluoro-4-[3-(3-sulfopropylamino)prop-1-ynyl]phenoxy]propyl]thiazole-4-carboxylic acid] | 0.0057 nM | 0.0012 nM | – | – | –
5 | Cc1cc(N(CCCCCO)c2nc(C(=O)O)c(CCCOc3ccc(C#CCN(C)C)cc3F)s2)nnc1Nc1nc2ccccc2s1 [Example 141, 2-[[6-(1,3-Benzothiazol-2-ylamino)-5-methyl-pyridazin-3-yl]-(5-hydroxypentyl)amino]-5-[3-[4-[3-(dimethylamino)prop-1-ynyl]-2-fluoro-phenoxy]propyl]thiazole-4-carboxylic acid] | 0.014 nM | 0.0055 nM | – | – | < 1 nM
6 | Cc1cc(N(C)c2nc(C(=O)O)c(CC(C)COc3ccc(C#CCN(C)C)cc3F)s2)nnc1Nc1nc2ccccc2s1 (centres unmarked) [Example 116, 2-({6-[(1,3-Benzothiazol-2-yl)amino]-5-methylpyridazin-3-yl}(methyl)amino)-5-(3-{4-[3-(dimethylamino)prop-1-yn-1-yl]-2-fluorophenoxy}-2-methylpropyl)-1,3-thiazole-4-carboxylic acid] | 0.017 nM | 0.0086 nM | 3.06 nM | 19.1 nM | –
7 | Cc1cc(N(CCCCNCCN2CCN(C)CC2)c2nc(C(=O)O)c(CCCOc3ccc(C#CCN(C)C)cc3F)s2)nnc1Nc1nc2ccccc2s1 [Example 168, 2-[[6-(1,3-Benzothiazol-2-ylamino)-5-methyl-pyridazin-3-yl]-[4-[2-(4-methylpiperazin-1-yl)ethylamino]butyl]amino]-5-[3-[4-[3-(dimethylamino)prop-1-ynyl]-2-fluoro-phenoxy]propyl]thiazole-4-carboxylic acid] | 0.012 nM | 0.0026 nM | 178 nM | – | < 1 nM
8 | CNCC#Cc1ccc(OCCCc2sc(N(CC(CO)OC)c3cc(C)c(Nc4nc5ccccc5s4)nn3)nc2C(=O)O)c(F)c1 (centres unmarked) [Example 118, 2-[[6-(1,3-Benzothiazol-2-ylamino)-5-methyl-pyridazin-3-yl]-(3-hydroxy-2-methoxy-propyl)amino]-5-[3-[2-fluoro-4-[3-(methylamino)prop-1-ynyl]phenoxy]propyl]thiazole-4-carboxylic acid] | 0.018 nM | 0.033 nM | 96 nM | 32.6 nM | –
9 | CNCC#Cc1ccc(OCCCc2sc(N(CCCCO)c3cc(C)c(Nc4nc5ccccc5s4)nn3)nc2C(=O)O)c(F)c1 [Example 114, 2-({6-[(1,3-Benzothiazol-2-yl)amino]-5-methylpyridazin-3-yl}(4-hydroxybutyl)amino)-5-(3-{2-fluoro-4-[3-(methylamino)prop-1-yn-1-yl]phenoxy}propyl)-1,3-thiazole-4-carboxylic acid] | 0.053 nM | 0.011 nM | 3.81 nM | 1.58 nM | –
10 | Cc1cc(N(CCCCO)c2nc(C(=O)O)c(CCCOc3ccc(C#CCN(CCCS(=O)(=O)O)CCCS(=O)(=O)O)cc3F)s2)nnc1Nc1nc2ccccc2s1 [Example 147, 2-({6-[(1,3-Benzothiazol-2-yl)amino]-5-methylpyridazin-3-yl}(4-hydroxybutyl)amino)-5-[3-(4-{3-[bis(3-sulfopropyl)amino]prop-1-yn-1-yl}-2-fluorophenoxy)propyl]-1,3-thiazole-4-carboxylic acid] | 0.0071 nM | 0.0097 nM | – | – | –
11 | CNCC#Cc1ccc(OCCCc2sc(N(CC(O)CO)c3cc(C)c(Nc4nc5ccccc5s4)nn3)nc2C(=O)O)c(F)c1 (centres unmarked) [Example 117, 2-[[6-(1,3-Benzothiazol-2-ylamino)-5-methyl-pyridazin-3-yl]-(2,3-dihydroxypropyl)amino]-5-[3-[2-fluoro-4-[3-(methylamino)prop-1-ynyl]phenoxy]propyl]thiazole-4-carboxylic acid] | 0.0099 nM | 0.0066 nM | 486 nM | 49.6 nM | –
12 | CNCC#Cc1ccc(OCCCc2sc(N(CCCCCO)c3cc(C)c(Nc4nc5ccccc5s4)nn3)nc2C(=O)O)c(F)c1 [Example 128] | 0.013 nM | 0.028 nM | 18.1 nM | 20.8 nM | –
13 | Cc1cc(N(CC(O)CO)c2nc(C(=O)O)c(CCCOc3ccc(C#CCN(C)C)cc3F)s2)nnc1Nc1nc2ccccc2s1 (centres unmarked) [Example 122, 2-[[6-(1,3-Benzothiazol-2-ylamino)-5-methyl-pyridazin-3-yl]-(2,3-dihydroxypropyl)amino]-5-[3-[4-[3-(dimethylamino)prop-1-ynyl]-2-fluoro-phenoxy]propyl]thiazole-4-carboxylic acid] | 0.0098 nM | 0.003 nM | 280 nM | 51.4 nM | –
14 | COCC(O)CCN(c1cc(C)c(Nc2nc3ccccc3s2)nn1)c1nc(C(=O)O)cs1 (centres unmarked) [Example 93, 2-[[6-(1,3-Benzothiazol-2-ylamino)-5-methyl-pyridazin-3-yl]-(3-hydroxy-4-methoxy-butyl)amino]thiazole-4-carboxylic acid] | 6.4 nM | – | 9400 nM | > 15000 nM | 6.8 nM
15 | Cc1cc(N(C)c2nc(C(=O)O)c(C3CCN(C(=O)c4ccccc4)CC3)s2)nnc1Nc1nc2ccccc2s1 [Example 89, 5-(1-Benzoylpiperidin-4-yl)-2-({6-[(1,3-benzothiazol-2-yl)amino]-5-methylpyridazin-3-yl}(methyl)amino)-1,3-thiazole-4-carboxylic acid] | 150 nM | – | 13100 nM | > 15000 nM | 160 nM
16 | Cc1cc(N(C)c2nc(C(=O)O)c(CCCOc3ccccc3F)s2)nnc1Nc1nc2ccccc2s1 [Example 59, 2-({6-[(1,3-Benzothiazol-2-yl)amino]-5-methylpyridazin-3-yl}(methyl)amino)-5-[3-(2-fluorophenoxy)propyl]-1,3-thiazole-4-carboxylic acid] | 0.14 nM | – | 76.1 nM | 271 nM | < 1 nM
17 | Cc1cc(N(C)c2nc(C(=O)O)c(C3CCN(S(=O)(=O)Cc4ccccc4)CC3)s2)nnc1Nc1nc2ccccc2s1 [Example 95, 2-({6-[(1,3-Benzothiazol-2-yl)amino]-5-methylpyridazin-3-yl}(methyl)amino)-5-(1-phenylmethanesulfonylpiperidin-4-yl)-1,3-thiazole-4-carboxylic acid] | 22 nM | – | 5010 nM | 9270 nM | 24 nM
18 | COC(CO)CCN(c1cc(C)c(Nc2nc3ccccc3s2)nn1)c1nc(C(=O)O)cs1 (centres unmarked) [Example 98, 2-[[6-(1,3-Benzothiazol-2-ylamino)-5-methyl-pyridazin-3-yl]-(4-hydroxy-3-methoxy-butyl)amino]thiazole-4-carboxylic acid] | 1.8 nM | – | > 15000 nM | > 15000 nM | 2.3 nM
